Experimental data published in patent US20150359884A1, “MULTI-PHOTON ISOMERISATION OF COMBRETASTATINS AND THEIR USE IN THERAPY” (priority 2011, published 2015).

Tests used:
[1] = tested on: HeLa cells; assay: Fluorescence lifetime imaging (FLIM) of uptake and intracellular concentration in HeLa cells; settings: HeLa cells, 100 μM added
Experimental: Both HeLa and Chinese hamster ovary (CHO) cells were obtained from the European Collection of Cell Cultures. HeLa cells were cultured in MEM medium (Gibco) containing 10% foetal calf serum, penicillin (100 units/mL), streptomycin (100 μg/mL) and glutamine (2 mM). CHO cells were cultured in DMEM (Gibco) with the same additions as for the HeLa cells. For microscopy the adherent cell cultures were grown in 35 mm diameter glass-bottom culture dishes with optical quality glass (MatTek Corporation) and incubated at 37° C. in a humidified atmosphere containing 5% CO2. Human umbilical vein endothelial cells (HUVECs) were obtained from TCS Cellworks. HUVECs were sub-cultured in basal medium (TCS Cellworks) supplemented with antibiotic supplement/amphotericin-B, following the detailed guidelines provided by TCS Cellworks.
The fluorescence lifetime imaging system with multiphoton excitation employed lasers for multiphoton excitation consisting of a Ti:Sapphire laser, tuneable between 700 and 1000 nm and providing ca 180 fs pulses at 76 MHz, and an optical parametric oscillator (OPO) pumped by a second Ti:Sapphire laser source. Using the doubled idler output of the OPO, useful energies (>200 mW) could be obtained between 550 and 640 nm. Samples were excited on the stage of Nikon TE2000U inverted microscope using a water immersion ×60 objective of NA 1.2. Using the various microscope ports it was possible to record the fluorescence in a number of ways. The fluorescence signal at one port was relayed to a spectrometer (Acton 275) and CCD setup (Andor iDUS) so that emission spectra and intensities could be recorded. Alternatively the fluorescence signal could be routed via a second port to a time-correlated single photon counting (TCSPC) system (Becker and Hickl SPC-830) allowing fluorescence lifetime measurements and fluorescence lifetime imaging (FLIM), using Becker and Hickl software (SPCImage) for analysis. In FLIM mode the fluorescence was isolated by a suitable narrowband interference filter (400IU25 together with BG3 (Comar)). […] Two photon cross sections were determined using a reference fluorophore as a two photon standard as described by Mathai et al., employing published values of the two-photon cross section for 9-chloroanthracene.
Images of intracellular distribution of E-combretastatins in cell monolayers were obtained using fluorescence lifetime imaging, in which the rastered excitation laser beam dwells on each pixel for a few milliseconds and at each position records a nanosecond fluorescence lifetime decay curve using the time-correlated single photon counting method. […]
Quantification of fluorophore concentration from intensity measurements is often difficult.

[2] = Picosecond time-resolved infrared (TRIR) spectroscopy of excited states; assay type: physicochemical
Experimental: The ultrafast time-resolved infrared (TRIR) experiments were performed on the ‘ULTRA’ laser system at the Science and Technology Facilities Council Rutherford Appleton Laboratory. The capabilities of the ULTRA instrument are described in detail elsewhere. Briefly, a chirped pulse amplified titanium:sapphire laser operating at 10 kHz repetition rate produced 40-80 fs duration pulses at a wavelength of 800 nm. The UV excitation pulse was generated from third harmonic generation of the 800 nm output of the amplifier with ˜50 fs duration at 266 nm, irradiating samples with a 1 μJ, 100 μm diameter beam. The mid-IR probe pulse was generated using ˜0.4 mJ of the 800 nm femtosecond output to pump an optical parametric amplifier, and difference frequency mixing of the signal and idler components. The mid-IR probe output pulses had ˜500 cm-1 bandwidth and ˜50 fs pulse duration. The UV pulses were polarized at a magic angle to the IR probe laser polarization. The timing between the pump and probe was performed using a PCcontrolled optical delay line. The sample in solution was placed between two 25 mm diameter CaF2 plates in a rasterscanned Harrick cell to limit irradiation of the sample by multiple pulses. The optical path of the sample between the two windows was controlled using a 100 μm PTFE spacer and the solution flowed using a peristaltic pump. The intensity of the transmitted mid-IR light was dispersed by a grating onto a pair of 128-element mercury-cadmium telluride array detectors (IR Associates), providing full (i.e. ˜500 cm-1) spectral coverage with every laser pulse. The overall instrument response time was ˜200 fs. A reference spectrum of the laser pulse (before the Harrick cell) was accumulated on a third, 64-element array detector and was used to remove the effects of laser fluctuations from the transient absorption data. Ground-state FTIR spectra were recorded using a Nicolet Avatar 360 spectrometer.
FIGS. 12 and 13 show the TRIR spectra of both isomers of CA4 following ultrafast electronic excitation using 266 nm, with the ground-state FTIR spectra shown beneath the time resolved data for comparison. To date there has been little characterization of combretastatins by infrared spectroscopy. However, the ground-state FTIR spectra have obvious similarities with stilbene and on this basis we assign the 1586/1581 and 1510/1509 cm-1 bands in E-CA4/Z-CA4 to the v8a ring stretches of the phenyl groups and v19a ring stretch with additional contributions from C—H in-plane bending. In the excited state spectra, there are negative absorption bands corresponding to bleaching of the ground-state absorptions and both the E- and Z-isomers are dominated by transient bands between 1350 and 1500 cm-1. At early times the transient bands show rapid shifting over about 10 cm-1 to higher wavenumbers associated with rapid ‘cooling’ of excess vibrational energy following electronic excitation as commonly observed in other molecular systems including DNA [26] and for the C═C stretching band of E-stilbene observed by time-resolved resonance Raman spectroscopy. It is also notable that for E-CA4 at pump-probe delays up to 20 ps, the intensities of the transient bands increase and this is most likely due to molecular rearrangements taking place lowering the overall symmetry of the molecule and increasing the cross-sections of these IR active modes. […]

[3] = room temperature, approximately 10 minutes
[4] = dichloromethane, 266 nm excitation

**Q.** Which “Intracellular concentration as times the concentration in the medium” value [1] does the source give for `COc1ccc(/C=C/c2cc(OC)c(OC)c(OC)c2)cc1O` [E-CA4, (E)-1-(3′,4′,5′-Trimethoxyphenyl)-2-(4″-methoxy-3″-hydroxy-phenyl)ethene] here?
**A.** Its value is 20-40 times.

**Q.** What about the “Intracellular concentration, smaller regions” value [1, 3] of the same molecule?
**A.** Its value is over 4 mM.

**Q.** What about the “Intracellular concentration, substantial regions of the cell cytoplasm” value [1, 3] of the same molecule?
**A.** Its value is over 2 mM.

**Q.** What about the “Excited state decay, longer lifetime (relaxed excited state)” value [2, 4] of the same molecule?
**A.** The value was 503±56 ps.

**Q.** And the “Excited state decay, shorter lifetime (biexponential fit)” value [2, 4]?
**A.** The value was 6.5±0.46 ps.

**Q.** What about the “Lifetime of the relaxed excited state measured by TRIR” value ([2]; methanol) of the same molecule?
**A.** Its value is 230±14 ps.
